# From PubChem BioAssay AID743392 (Broad Institute, 2014)
# Active and inactive are the calls of the source.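 Rule for the calls: active = phosphorylated Mpk1, a fungal stress kinase, cut by at least 20% below its untreated level on western blot; inactive = the rest.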
# Tested on: Mitogen-activated protein kinase MPK1 phosphorylation (Cryptococcus neoformans H99)
# Assay: reduced phospho-Mpk1 levels in Cryptococcus cells – cell-based, single point, dry powder, imaging, mechanism study for C. neoformans antifungal project (AID 743392)
# Conditions: C. neoformans H99, pMpk1 Western blot, 2 h; stronger effect = higher value; concentration not given here
row,inhibition,SMILES
1,62%,CC(C)c1ccc(OCCn2c(=S)[nH]c3ccccc32)cc1
2,53%,Cc1ccc(C(C)C)c(OCCn2c(=S)[nH]c3ccccc32)c1

# More lines, now with the values behind:
row,SMILES,inhibition
1,Cc1cccc(OCCn2c(=S)[nH]c3c(F)cccc32)c1,4% (inactive)
2,S=c1[nH]c2ccccc2n1CCOc1ccccc1Cl,56%
3,Fc1cccc(OCCn2c(=S)[nH]c3ccccc32)c1,52%
